Experimental findings from US11440918B2, “p38α mitogen-activated protein kinase inhibitors” (priority 2020, dated 2022) are described below.

For data set [1], the system named is SARS-CoV-2 isolate BetaCoV/France/IDF0372/2020 (SARS-CoV-2 Paris). The data set can be described thus: SARS-CoV-2 anti-viral assay Paris (viral genomes by RT-qPCR). The data set is classed as cell-based. The settings on record: Severe acute respiratory syndrome coronavirus 2; SARS-CoV-2 Paris isolate, 48 hours. On the technique in general: In qPCR the cycle at which signal appears reflects the starting amount.

Data set [2] deals with SARS-CoV-2, isolate USA-WA1/2020 (SARS-CoV-2 New York). Kind of data set: SARS-CoV-2 anti-viral assay New York (N-protein staining). The data set is classed as cell-based. The settings on record: Severe acute respiratory syndrome coronavirus 2; SARS-CoV-2 New York isolate, 48 hours; read-out: Anti-Viral NY IC50.
Data set [3] concerns SARS-CoV-2 isolate BetaCoV/France/IDF0372/2020 (SARS-CoV-2 Paris). Kind of data set: Viral quantification via plaque assay in Paris. The format is cell-based. To be noted: Severe acute respiratory syndrome coronavirus 2.
A further data set concerns SARS-CoV-2. The data set can be described thus: microbe, parasite or virus in culture. The format is cell-based. The settings on record: Severe acute respiratory syndrome coronavirus 2, read-out: IC50 for anti-SARS-CoVID-19 activity.
The conditions of data set [4]: 10 μM.
The conditions of data set [5]: 10 μM. This is another data set of the same source.
For data set [6] the following is noted: 10 μM. The source holds these as a separate data set.
The target in another data set is p38β (Homo sapiens (Human), UniProt Q15759). The data set can be described thus: Surface plasmon resonance (SPR) assay, Biacore T200. (Surface plasmon resonance follows binding to a sensor surface in real time, without labels.)
Sequence of p38β (Q15759 whole entry): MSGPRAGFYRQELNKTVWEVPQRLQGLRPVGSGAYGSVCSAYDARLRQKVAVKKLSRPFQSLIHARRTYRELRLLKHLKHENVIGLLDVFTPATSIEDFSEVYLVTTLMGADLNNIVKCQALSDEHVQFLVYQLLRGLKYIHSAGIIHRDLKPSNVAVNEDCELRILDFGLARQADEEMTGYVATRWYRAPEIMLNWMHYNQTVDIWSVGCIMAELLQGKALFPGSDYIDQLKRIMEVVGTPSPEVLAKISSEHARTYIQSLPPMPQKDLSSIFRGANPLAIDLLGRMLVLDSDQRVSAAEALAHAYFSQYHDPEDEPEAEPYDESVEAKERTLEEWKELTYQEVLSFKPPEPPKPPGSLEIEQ

A value given as a limit tells only on which side of the number the result lay.

In general, IC50 refers to the midpoint of a concentration-inhibition curve. By Kd is commonly meant the constant that tells how readily two partners part at equilibrium.

`O=C(Nc1ccc(CN2CCCOCC2)cc1)c1ccc(Cl)cc1` [Compound 1, N-(4-((1,4-oxazepan-4-yl)methyl)phenyl)-4-chlorobenzamide]: the IC50 in data set [1] is 0.6 µM; in data set [2], 0.7 µM; in data set [3], 1.8 µM; with SARS-CoV-2, under 10 µM. Further, the “stable in human plasma” value in data set [4] is “at least 4 hours”. In data set [5], the “stable in monkey plasma” value is on record as “at least 4 hours”. Further, the “stable in rat plasma” value in data set [6] was “at least 4 hours”. Further, the Kd at p38β was under 0.01 µM.

Take `O=C(Nc1ccc(CN2CC3(COC3)C2)cc1)c1ccc(Cl)cc1` [Compound 2, N-(4-((2-oxa-6-azaspiro[3.3]heptan-6-yl)methyl)phenyl)-4-chlorobenzamide]: the IC50 is 7.8 µM in data set [1], 1.2 µM in data set [2] and under 10 µM with SARS-CoV-2.

For the compound `O=C(Nc1ccc(CN2CCOCC2)cc1)c1cnc(Cl)nc1` [Compound 3, 2-chloro-N-(4-(morpholinomethyl)phenyl)pyrimidine-5-carboxamide], the IC50 in data set [1] was 9.4 µM; in data set [2], 1.2 µM; in the data set on SARS-CoV-2, under 10 µM.

On to `O=C(Nc1ccc(CN2CC3(CCOCC3)C2)cc1)c1ccc(Cl)cc1` [Compound 4, N-(4-((7-oxa-2-azaspiro[3.5]nonan-2-yl)methyl)phenyl)-4-chlorobenzamide], for which the IC50 in data set [1] was 2.1 µM; in data set [2], 0.7 µM; in data set [3], 1.4 µM; in the data set on SARS-CoV-2 it was under 10 µM.

Turning to `O=C(Nc1ccc(CN2CCC3(CCCO3)C2)cc1)c1ccc(Cl)cc1` (stereo not drawn) [Compound 6, N-(4-((1-oxa-7-azaspiro[4.4]nonan-7-yl)methyl)phenyl)-4-chlorobenzamide], the IC50 in data set [1] was 2.9 µM; in data set [2], 6.4 µM; in the data set with SARS-CoV-2 it was under 10 µM. Further, the “stable in human plasma” value in data set [4] is “at least 4 hours”. In addition, the “stable in monkey plasma” value in data set [5] is “at least 4 hours”. The “stable in rat plasma” value in data set [6] was “at least 4 hours”. This compound came in with a Kd at p38β of under 0.01 µM.

On to `C[C@H]1CN(Cc2ccc(NC(=O)c3ccc(Cl)cc3)cc2)C[C@H](C)O1` [Compound 8, 4-chloro-N-(4-(((2S,6S)-2,6-dimethylmorpholino)methyl)phenyl)benzamide], for which the IC50 in the data set with SARS-CoV-2 was under 10 µM. Also, in data set [4], the “stable in human plasma” value was “at least 4 hours”. For the same compound, in data set [5], the “stable in monkey plasma” value is listed as “at least 4 hours”. Also, in data set [6], the “stable in rat plasma” value is given as “at least 4 hours”. On p38β, this compound came in with a Kd of under 0.01 µM.

In data set [1], `O=C(Nc1ccc(CN2C[C@@H]3COC[C@@H](C3)C2)cc1)c1ccc(Cl)cc1` [Compound 9, N-(4-(((1R,5S)-3-oxa-7-azabicyclo[3.3.1]nonan-7-yl)methyl)phenyl)-4-chlorobenzamide] gave an IC50 of 3.1 µM.

On to `O=C(Nc1ccc(CN2C[C@H]3COC[C@H]3C2)cc1)c1ccc(Cl)cc1` [Compound 10, 4-chloro-N-(4-(((3aR,6aS)-tetrahydro-1H-furo[3,4-c]pyrrol-5(3H)—1)methyl)phenyl)benzamide], for which the IC50 was determined as 1.3 µM in data set [1], 0.2 µM in data set [2] and 2.8 µM in data set [3]. Besides, in data set [4], the “stable in human plasma” value is listed as “at least 4 hours”. Also, in data set [5], the “stable in monkey plasma” value is reported as “at least 4 hours”. Further, the “stable in rat plasma” value in data set [6] is on record as “at least 4 hours”.

`O=C(Nc1ccc(CN2CCC(O)CC2)cc1)c1ccc(Cl)cc1` [Compound 11, 4-chloro-N-(4-((4-hydroxypiperidin-1-yl)methyl)phenyl)benzamide]: the IC50 in data set [1] is 1.6 µM; in data set [2], 0.2 µM; in data set [3] it was 2.1 µM; in the data set with SARS-CoV-2 it was under 10 µM.

For the compound `O=C(Nc1ccc(CN2CCC(O)C2)cc1)c1ccc(Cl)cc1` (stereo not drawn) [Compound 13, 4-chloro-N-(4-((3-hydroxypyrrolidin-1-yl)methyl)phenyl)benzamide], the IC50 in data set [1] is 3.4 µM; in the data set on SARS-CoV-2 it was under 10 µM.

As for `CC(=O)N1CCN(Cc2ccc(NC(=O)c3ccc(Cl)cc3)cc2)CC1` [Compound 14, N-(4-((4-acetylpiperazin-1-yl)methyl)phenyl)-4-chlorobenzamide], the “stable in human plasma” value in data set [4] is recorded as “at least 4 hours”. For the same compound, the “stable in monkey plasma” value in data set [5] is “at least 4 hours”. The “stable in rat plasma” value in data set [6] is listed as “at least 4 hours”. Moreover, the Kd on p38β is under 0.01 µM.

`CN1CCN(Cc2ccc(NC(=O)c3ccc(Cl)cc3)cc2)CC1` [Compound 17, 4-chloro-N-(4-((4-methylpiperazin-1-yl)methyl)phenyl)benzamide]: the half-inhibitory concentration (IC50) in data set [1] is 3.6 µM; in data set [2], 0.7 µM; in data set [3], 2.7 µM; in the data set on SARS-CoV-2, under 10 µM.
